The values below come from patent US12384769B2, “Heteroaryl-substituted aminoalkyl azole compounds as pesticides” (Elanco Animal Health GmbH, priority 2019, dated 2025).

What all share (assay type): in vivo
One test has as its system Diabrotica balteata. Description: Diabrotica balteata spray test. The following applies: 168 h, wheat seeds, after 7 days, read-out: activity (efficacy, seedlings grown); for pest or weed control at 160 µg/disc, 500 g/ha: 500 g/ha (=160 μg/well). The procedure:
Diabrotica balteata—Spray Test
Solvent: 78.0 parts by weight of acetone • • 1.5 parts by weight of dimethylformamide
(§1) Emulsifier: alkylarylpolyglycol ether
To produce a suitable preparation of active compound, 1 part by weight of active compound is mixed with the stated amount of solvent, and the concentrate is diluted with water, containing an emulsifier concentration of 1000 ppm, to the desired concentration. Further test concentrations are prepared by dilution with emulsifier containing water.
Soaked wheat seeds (Triticum aestivum) are placed in a multiple well plate filled with agar and some water and are incubated for 1 day to germinate (5 seeds per well). The germinated wheat seeds are sprayed with a test solution containing the desired concentration of the active ingredient. Afterwards each unit is infected with 10-20 larvae of the banded cucumber beetle (Diabrotica balteata).
After 7 days efficacy in % is determined. 100% means all the seedlings have grown up like in the untreated, uninfected control; 0% means none of the seedlings have grown.

The test system of test [1] is Ctenocephalides felis. Kind of test: Ctenocephalides felis in-vitro contact test, adult cat flea. The following applies: 5 μg/cm^2 (=500 g/ha), after 48 hours, read-out: activity (efficacy, fleas dead or moribund). The procedure: Ctenocephalides felis—in-Vitro Contact Tests Adult Cat Flea
9 mg compound is solved in 1 ml acetone and diluted with acetone to the desired concentration. […] the test solution is filled in 25 ml glass test tubes and homogeneously distributed on the inner walls by rotation and tilting on a shaking device (2 h at 30 rpm). With a compound concentration of 900 ppm, an inner surface of 44.7 cm^2 and a homogeneous distribution, a dose of 5 μg/cm^2 is achieved.
After the solvent has evaporated, each test tube is filled with 5-10 adult cat fleas (Ctenocephalides felis), closed with a perforated lid and incubated in a lying position at room temperature and relative humidity. After 48 hours efficacy is determined. The fleas are patted on the ground of the tubes and are incubated on a heating plate at 45-50° C. for at most 5 minutes Immotile or uncoordinated moving fleas, which are not able to escape the heat by climbing upwards, are marked as dead or moribund.
An efficacy of 100% means all fleas are dead or moribund; 0% means no fleas are dead or moribund.

For a further test, the system named is Boophilus microplus. Description: Boophilus microplus injection test (BOOPMI Injection). Conditions: Rhipicephalus microplus, 168 h, injection into adult engorged female ticks, egg deposition after 7 days, read-out: activity (efficacy, infertile eggs); for pest or weed control at 0.004 mg: 4 μg/animal; for pest or weed control at 0.02 mg: 20 μg/animal. The method, then:
Boophilus microplus—Injection Test (BOOPMI Injection)
(§2) Solvent: dimethyl sulfoxide
To produce a suitable preparation of active compound, 10 mg of active compound are dissolved in 0.5 mL solvent, and the concentrate is diluted with solvent to the desired concentration.
Five adult engorged female ticks (Boophilus microplus) are injected with 1 μL compound solution into the abdomen. The ticks are transferred into replica plates and incubated in a climate chamber.
After 7 days egg deposition of fertile eggs is monitored. Eggs where fertility is not visible are stored in a climate chamber till hatching after about 42 days. An efficacy of 100% means all eggs are infertile; 0% means all eggs are fertile.

Another test has as its system Spodoptera frugiperda. Description: Spodoptera frugiperda spray test. Conditions: in Zea mays, 168 h, read-out: activity (mortality). The method, then: Spodoptera frugiperda—Spray Test
Solvent: 78.0 parts by weight acetone • 1.5 parts by weight dimethylformamide
as §1
To produce a suitable preparation of active compound, 1 part by weight of active compound is mixed with the stated amount of solvents and is diluted with water, containing an emulsifier concentration of 1000 ppm, to the desired concentration. Further test concentrations are prepared by dilution with emulsifier containing water.
Maize (Zea mays) leaf sections are sprayed with a preparation of the active ingredient of the desired concentration. Once dry, the leaf sections are infested with fall armyworm larvae (Spodoptera frugiperda).
After 7 days mortality in % is determined. 100% means all caterpillars have been killed and 0% means none of the caterpillars have been killed.

Test [2] deals with Rhipicephalus microplus (strain Parkhurst, resistant against synthetic pyrethroids). Kind of test: Rhipicephalus microplus in-vitro contact test, larval cattle tick (BOOPMI Contact). Conditions: 5 μg/cm^2 (=500 g/ha), after 48 hours, read-out: activity (efficacy, larvae dead or moribund). The method, then:
Rhipicephalus microplus—in-Vitro Contact Tests Larval Cattle Tick (Strain Parkhurst, Resistant Against Synthetic Pyrethroids) (BOOPMI Contact)
9 mg compound is solved in 1 ml acetone and diluted with acetone to the desired concentration. 250 μL of the test solution is filled in 25 ml glass test tubes and homogeneously distributed on the inner walls by rotation and tilting on a shaking device (2 h at 30 rpm). With a compound concentration of 900 ppm, an inner surface of 44.7 cm^2 and a homogeneous distribution, a dose of 5 μg/cm^2 is achieved.
After the solvent has evaporated, each test tube is filled with 20-50 cattle tick larvae (Rhipicephalus microplus), closed with a perforated lid and incubated in a horizontal position at 85% relative humidity and 27° C. in an incubator. After 48 hours efficacy is determined. The larvae are patted on the ground of the tubes and negative geotactic behaviour is recorded.
An efficacy of 100% means all larvae are dead or moribund; 0% means no larvae are dead or moribund.

In test [3] the test system is Ctenocephalides felis. Description: Ctenocephalides felis oral test (CTECFE). The following applies: 48 h, 100 ppm in cattle blood, after 2 days. The method, then:
Ctenocephalides felis—Oral Test (CTECFE)
as §2
To produce a suitable preparation of active compound, 10 mg of active compound are dissolved in 0.5 ml solvent, and the concentrate is diluted with cattle blood to the desired concentration.
Approximately 20 adult unfed cat fleas (Ctenocephalides felis) are placed in flea chambers. The blood chamber, sealed with parafilm on the bottom, are filled with cattle blood supplied with compound solution and placed on the gauze covered top of the flea chamber, so that the fleas are able to suck the blood. The blood chamber is heated to 37° C. whereas the flea chamber is kept at room temperature.
After 2 days mortality in % is determined. 100% means all the fleas have been killed; 0% means none of the fleas have been killed.

As to `C[C@H](Nc1nc2cc(C(F)(F)F)cc(Cl)c2o1)c1ncnn1-c1cc(C#N)ccn1` [Example I-052, 2-{5-[(1S)-1-{[7-Chlor-5-(trifluormethyl)-1,3-benzoxazol-2-yl]amino}ethyl]-1H-1,2,4-triazol-1-yl}isonicotinonitril], in the test with Diabrotica balteata, the pest or weed control at 160 µg/disc, 500 g/ha stood at 100%. For the same compound, in the test with Ctenocephalides felis [1], the pest or weed control at 5 µg/cm2, 5 µg/cm2 came to 100%. Moreover, in the test with Boophilus microplus, the pest or weed control at 0.004 mg was found to be 100% and the pest or weed control at 0.02 mg worked out at 100%. Moreover, in the test on Spodoptera frugiperda, the mortality at 500 g/ha amounted to 100%.

Consider `C[C@H](Nc1nc2cc(C(F)(F)F)cc(Cl)c2o1)c1ncnn1-c1ncc(C#N)cn1` [Example I-042, 2-{5-[(1S)-1-{[7-Chlor-5-(trifluormethyl)-1,3-benzoxazol-2-yl]amino}ethyl]-1H-1,2,4-triazol-1-yl}pyrimidin-5-carbonitril], for which, in test [2], the pest or weed control at 5 µg/cm2 was 90%. The pest or weed control at 5 µg/cm2, 5 µg/cm2 in the test on Ctenocephalides felis [1] came to 90%.

As for `C[C@H](Nc1nc2cc(C(F)(F)F)c(Br)cn2n1)c1ncnn1-c1ncccn1` [Example I-094, 6-bromo-N-{(1S)-1-[1-(pyrimidin-2-yl)-1H-1,2,4-triazol-5-yl]ethyl}-7-(trifluoromethyl)[1,2,4]triazolo[1,5-a]pyridin-2-amine], the mortality at 100 ppm in the test on Ctenocephalides felis [3] was 100%. Besides, the pest or weed control at 100 g/ha in the test on Diabrotica balteata worked out at 100%. The pest or weed control at 5 µg/cm2, 5 µg/cm2 with Ctenocephalides felis [1] came out at 100%. In addition, in the test on Boophilus microplus, the pest or weed control at 0.004 mg was 100% and the pest or weed control at 0.02 mg is 100%.

As for `C[C@H](Nc1nc2cc(OC(F)F)cc(Cl)c2o1)c1ncnn1-c1ncccn1` [Example I-074, 7-Chlor-5-(difluormethoxy)-N-{(1S)-1-[1-(pyrimidin-2-yl)-1H-1,2,4-triazol-5-yl]ethyl}-1,3-benzoxazol-2-amin], in the test on Ctenocephalides felis [3], the mortality at 100 ppm came out at 100%. In the test with Ctenocephalides felis [1], the pest or weed control at 5 µg/cm2, 5 µg/cm2 amounted to 100%. In addition, the pest or weed control at 0.004 mg in the test with Boophilus microplus was found to be 80%.

Regarding `Cc1nc([C@H](C)Nc2nc3cc(C(F)(F)F)c(Cl)cc3o2)n(-c2ccc(C#N)cn2)n1` [Example I-019], in the test on Diabrotica balteata, the pest or weed control at 100 g/ha was 100% and the pest or weed control at 160 µg/disc, 500 g/ha stood at 100%. Besides, the pest or weed control at 5 µg/cm2 in test [2] was 100%. In addition, in the test with Ctenocephalides felis [1], the pest or weed control at 5 µg/cm2, 5 µg/cm2 came to 100%. For the same compound, the pest or weed control at 0.02 mg in the test with Boophilus microplus is 100%. Moreover, the mortality at 500 g/ha with Spodoptera frugiperda turned out to be 100%.

As for `COc1cnc(-n2ncnc2[C@H](C)Nc2nc3cc(C(F)(F)F)c(Cl)cc3o2)nc1` [Example I-058, 6-Chlor-N-{(1S)-1-[1-(5-methoxypyrimidin-2-yl)-1H-1,2,4-triazol-5-yl]ethyl}-5-(trifluormethyl)-1,3-benzoxazol-2-amin], in the test with Diabrotica balteata, the pest or weed control at 100 g/ha stood at 100%. The pest or weed control at 5 µg/cm2 in test [2] is 100%. The pest or weed control at 5 µg/cm2, 5 µg/cm2 with Ctenocephalides felis [1] is 100%. The mortality at 100 g/ha in the test on Spodoptera frugiperda came out at 83%.

For the compound `C[C@H](Nc1nc2cc(OC(F)F)cc(Cl)c2o1)c1ncnn1-c1ncc(Br)cn1` [Example I-071, N-{(1S)-1-[1-(5-Brompyrimidin-2-yl)-1H-1,2,4-triazol-5-yl]ethyl}-7-chlor-5-(difluormethoxy)-1,3-benzoxazol-2-amin], in the test on Ctenocephalides felis [3], the mortality at 100 ppm stood at 100%. Further, in the test with Diabrotica balteata, the pest or weed control at 100 g/ha was 100%. Also, the pest or weed control at 5 µg/cm2, 5 µg/cm2 with Ctenocephalides felis [1] was determined as 90%.

`C[C@H](Nc1nc2cc(S(F)(F)(F)(F)F)cc(Cl)c2o1)c1ncnn1-c1ncccn1` [Example I-069, 7-Chlor-5-(pentafluor-lambda^6-sulfanyl)-N-{(1S)-1-[1-(pyrimidin-2-yl)-1H-1,2,4-triazol-5-yl]ethyl}-1,3-benzoxazol-2-amin] returned a mortality at 100 ppm in the test with Ctenocephalides felis [3] of 100%. In addition, in the test on Diabrotica balteata, the pest or weed control at 100 g/ha is 100%. Also, in test [2], the pest or weed control at 5 µg/cm2 was 80%. Further, the pest or weed control at 0.004 mg in the test with Boophilus microplus came out at 100%. For the same compound, the mortality at 100 g/ha in the test on Spodoptera frugiperda is 100%.
